# Experimental data as given in US7407988B2, “Carbamic acid compounds comprising a sulfonamide linkage as HDAC inhibitors” (Topotarget UK Limited, priority 2000, dated 2008).
# Read-outs that look alike come from different tables or passages of the source.
# Tests used:
# [1] = test system: K11 HPV E7 transformed human keratinocyte line; assay: Secondary assay: cell proliferation WST-1, K11; format: cell-based; settings: Homo sapiens, Keratinocyte; for IC50: Table 2, 48 h, read-out: Cell Proliferation Inhibition WST-1 (IC50 unless otherwise specified) K11
# JURKAT human T-cell line = assay: Secondary assay: cell proliferation WST-1, Jurkat; format: cell-based; settings: Homo sapiens, Table 2, 48 h, read-out: Cell Proliferation Inhibition WST-1 (IC50 unless otherwise specified) Jurkat
# HeLa cells = assay: Secondary assay: cell proliferation WST-1, HeLa; format: cell-based; settings: Homo sapiens, read-out: Cell Proliferation Inhibition WST-1 (IC50 unless otherwise specified) HeLa
# HDAC (HeLa cell extract) = assay: Primary assay: deacetylase activity, HeLa cell extract as source of HDAC; format: biochemical, human
# Excerpt: Briefly, this assay relies on the release of radioactive acetate from a radioactively labelled histone fragment by the action of HDAC enzyme. Test compounds, which inhibit HDAC, reduce the yield of radioactive acetate. Signal (e.g., scintillation counts) measured in the presence and absence of a test compound provide an indication of that compound's ability to inhibit HDAC activity. Decreased activity indicates increased inhibition by the test compound.
# The histone fragment was an N-terminal sequence from histone H4, and it was labelled with radioactively labelled acetyl groups using tritiated acetylcoenzyme A (coA) in conjunction with an enzyme which is the histone acetyltransferase domain of the transcriptional coactivator p300. […] The acetylated peptide was then separated from free acetyl coA by size exclusion chromatography on Sephadex G-15 (Sigma G-15-120), using distilled H2O as the mobile phase.
# After purification of the radiolabelled histone fragment, it was incubated with a source of HDAC (e.g., an extract of HeLa cells (a rich source of HDAC), recombinantly produced HDAC1 or HDAC2) and any released acetate was extracted into an organic phase and quantitatively determined using scintillation counting. By including a test compound with the source of HDAC, that compound's ability to inhibit the HDAC was determined.
# Two cell volumes of extraction buffer were used, and particulate material was centrifuged out (20800 g, 4° C., 10 min). The supernatant extract having deacetylase activity was aliquotted and frozen for storage.
# A source of HDAC (e.g., 2 μL of crude HeLa extract, 5 μL of HDAC1 or HDAC2; in elution buffer, as above) was incubated with 3 μL of radioactively labelled peptide along with appropriate dilutions of candidate compounds (1.5 μL) in a total volume of 150 μL of buffer (20 mM Tris pH 7.4, 10% glycerol). The reaction was carried out at 37° C. for one hour, after which the reaction was stopped by adding 20 μL of 1 M HCl/0.4 M sodium acetate. […] Radioactivity was measured using a Tri-Carb 21 00TR Liquid Scintillation Analyzer (Packard).
# Percent activity (% activity) for each test compound was calculated as: % activity={(S^C−B)/(S°−B)}×100 wherein S^C denotes signal measured in the presence of enzyme and the compound being tested, S° denotes signal measured in the presence of enzyme but in the absence of the compound being tested, and B denotes the background signal measured in the absence of both enzyme and compound being tested.
# [2] = test system: NHEK-Ad primary human adult keratinocyte line; assay: Secondary assay: cell proliferation WST-1, NHEK-Ad; format: cell-based; settings: Homo sapiens, Keratinocyte; Table 2; NHEK-AD; 48 h; read-out: Cell Proliferation Inhibition WST-1 (IC50 unless otherwise specified) NHEK-AD
# [3] = Table 1, read-out: HDAC Inhibition (IC50 unless otherwise specified) HeLa
# [4] = comparative tables, HDAC inhibition, read-out: HeLa IC50
SMILES,IC50 [1] [nM],melting point,IC50 (JURKAT human T-cell line) [nM],"IC50 (HeLa cells; Table 2, 48 h) [nM]",IC50 (HDAC (HeLa cell extract); [3]) [nM],IC50 (HDAC (HeLa cell extract); [4]) [nM],"inhibition at 20 µM ([1]; Table 2, @ 20 μM, 48 h) [%]",IC50 (HeLa cells; 48 h) [nM],IC50 [2] [nM]
"COc1ccc(S(=O)(=O)Nc2cccc(/C=C/C(=O)NO)c2)cc1OC [PX117780, 3-[3-(3,4-Dimethoxy-benzenesulfonylamino)-phenyl]-N-hydroxy-acrylamide]",10500,158 °C,4000,16800,125,–,–,–,–
"O=C(/C=C/c1cccc(S(=O)(=O)NC(Cc2ccccc2)c2ccccc2)c1)NO (stereo not drawn) [PX117774, 3-[3-(1,2-Diphenyl-ethylsulfamoyl)-phenyl]-N-hydroxy-acrylamide]",7000,150 °C,1000,6400,396,–,–,–,–
"O=C(/C=C/c1cccc(S(=O)(=O)NCc2ccco2)c1)NO [PX117710, 3-{3-[(Furan-2-ylmethyl)-sulfamoyl]-phenyl}-N-hydroxyacrylamide]",4000,165 °C,420,5000,125,–,–,–,–
"O=C(/C=C/c1cccc(S(=O)(=O)Nc2cccc(Br)c2)c1)NO [PX117734, 3-[3-(3-Bromo-phenylsulfamoyl)-phenyl]-N-hydroxy-acrylamide]",880,135.5 to 136.5 °C,79,2100,8,–,–,–,–
"O=C(/C=C/c1cccc(NS(=O)(=O)/C=C/c2ccccc2)c1)NO [PX117446, N-Hydroxy-3-{3-[(E)-2-phenylethenesulfonylamino]phenyl}acrylamide]",3700,171 °C,430,6000,18,18,–,–,–
O=C(/C=C/c1cccc(S(=O)(=O)NCc2ccccc2)c1)NO [PX106511],2500,179 °C,235,380,35,35,–,–,–
"O=C(/C=C/c1ccc(S(=O)(=O)Nc2ccc(Br)cc2)cc1)NO [PX117795, N-Hydroxy-3-[4-(4-bromo-phenylsulfamoyl)-phenyl]-acrylamide]",1500,219 to 220.5 °C,510,3400,13,–,–,–,–
"O=C(/C=C/c1cccc(S(=O)(=O)Nc2ccc(OC(F)F)cc2)c1)NO [PX117789, 3-[3-(4-Difluoromethoxy-phenylsulfamoyl)-phenyl]-N-hydroxy-acrylamide]",800,91 to 93 °C,300,1100,30,–,–,–,–
"O=C(/C=C/c1cccc(S(=O)(=O)NCc2cccc3ccccc23)c1)NO [PX117225, N-Hydroxy-3-{3-[(naphthalen-1-ylmethyl)sulfamoyl]-phenyl}-acrylamide]",–,177 °C,3300,–,640,640,26,11900,–
O=C(/C=C/c1cccc(S(=O)(=O)Nc2ccc(Br)cc2)c1)NO [PX106509],2000,204 °C,330,2000,6,–,–,–,–
"O=C(/C=C/c1cccc(S(=O)(=O)Nc2ccc(OC(F)(F)F)cc2)c1)NO [PX117775, N-Hydroxy-3-[3-(4-trifluoromethoxy-phenylsulfamoyl)-phenyl]-acrylamide]",5300,131 °C,530,2100,16,–,–,–,–
O=C(CCCCCCCS(=O)(=O)Nc1ccccc1)NO [PX117245],–,87 to 88 °C,1100,310,16,–,–,–,520
"O=C(/C=C/c1cccc(S(=O)(=O)Nc2ccc(-c3ccccc3)cc2)c1)NO [PX117715, 3-[3-(Biphenyl-4-ylsulfamoyl)-pheny]-N-hydroxy-acrylamide]",930,188 °C,290,1500,10,–,–,–,–
"O=C(/C=C/c1cccc(NS(=O)(=O)c2ccc(-c3ccccc3)cc2)c1)NO [PX117781, 3-[3-(Biphenyl-4-sulfonylamino)-phenyl]-N-hydroxy-acrylamide]",2200,115 °C,800,3400,58,–,–,–,–
O=C(/C=C/c1cccc(S(=O)(=O)Nc2ccc(Cl)cc2)c1)NO [PX106510],4200,198 °C,250,2300,12,–,–,–,–
"O=C(/C=C/c1ccc(NS(=O)(=O)c2ccc(-c3ccccc3)cc2)cc1)NO [PX117793, (E)-N-Hydroxy-3-[4-(4-biphenylsulfonylamino)-phenyl]-2-propenamide]",2700,190 to 191.5 °C,500,2000,50,–,–,–,–
"COc1ccc(C(F)(F)F)cc1NS(=O)(=O)c1cccc(/C=C/C(=O)NO)c1 [PX117791, N-Hydroxy-3-[3-(2-methoxy-5-trifluoromethyl-phenylsulfamoyl)-phenyl]-acrylamide]",6700,207 °C (dec.),1300,3600,250,–,–,–,–
"COc1cccc(NS(=O)(=O)c2cccc(/C=C/C(=O)NO)c2)c1 [PX117712, N-Hydroxy-3-[3-(3-methoxy-phenylsulfamoyl)-phenyl]-acrylamide]",650,137 °C,130,1100,14,–,–,–,–
"COc1ccccc1NS(=O)(=O)c1cccc(/C=C/C(=O)NO)c1 [PX117227, N-Hydroxy-3-[3-(2-methoxy-phenylsulfamoyl)-phenyl]-acrylamide]",4700,181 °C,360,1200,50,–,–,–,–
"O=C(/C=C/c1cccc(S(=O)(=O)Nc2ccccc2F)c1)NO [PX117787, 3-[3-(2-Fluoro-phenylsulfamoyl)-phenyl]-N-hydroxy-acrylamide]",1200,102 to 103 °C,500,2600,67,–,–,–,–
"O=C(/C=C/c1ccc(S(=O)(=O)Nc2ccc(-c3ccccc3)cc2)cc1)NO [PX117792, N-Hydroxy-3-[4-(biphenyl-4-ylsulfamoyl)-phenyl]-acrylamide]",400,211 to 211.5 °C,430,1400,48,–,–,–,–
"O=C(/C=C/c1cccc(S(=O)(=O)NC(c2ccccc2)c2ccccc2)c1)NO [PX117773, 3-[3-(Benzhydryl-sulfamoyl)-phenyl]-N-hydroxy-acrylamide]",6200,180 °C,1200,3400,67,–,–,–,–
"O=C(/C=C/c1cccc(S(=O)(=O)Nc2cccc(F)c2)c1)NO [PX117788, 3-[3-(3-Fluoro-phenylsulfamoyl)-phenyl]-N-hydroxy-acrylamide]",1700,130 to 133 °C,290,2000,36,–,–,–,–
"O=C(/C=C/C#Cc1ccc(S(=O)(=O)Nc2ccccc2)cc1)NO [PX117453, E-5-(4-Phenylsulfamoylphenyl)pent-2-en-4-ynoic acid hydroxyamide]",4200,161 to 163 °C,1100,5700,45,45,–,–,–
CCn1c2ccccc2c2cc(NS(=O)(=O)c3cccc(/C=C/C(=O)NO)c3)ccc21 [PX117798],350,130 to 133 °C,3600,900,50,–,–,–,–
